Among the test systems are NCI-H23 lung; SK-MEL-28 melanoma; NCI-H460 lung; M14 melanoma; SNB-19 CNS; CAKI-1 renal; K-562 leukemia; SF-539 CNS; MCF7 breast; NCI/ADR-RES ovarian; TK-10 renal; HS 578T breast; DU-145 prostate.
Holding throughout (experiment): NCI tumour cell line growth inhibition, 48 h

Structures are written as SMILES.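 Compound exposure: 48 hours, 5 concentrations, 96-well plates. TGI is the concentration that stops growth completely.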

With `Cc1nn(C(=O)c2ccncc2)c2c1C(c1cccc([N+](=O)[O-])c1)SC(N)=N2` (stereo not drawn), the TGI with NCI-H23 lung, in the assay with SK-MEL-28 melanoma, with NCI-H460 lung, with M14 melanoma, with SNB-19 CNS and in the assay with CAKI-1 renal was over 10 µM in each case. Also, the TGI in the assay on K-562 leukemia, in the assay on SF-539 CNS, in the assay on MCF7 breast, with NCI/ADR-RES ovarian, in the assay with TK-10 renal and in the assay with HS 578T breast was over 10 µM each time. The compound further registered a TGI with DU-145 prostate of over 10 µM.
As to `S=C(N/N=C\c1ccccn1)N(Cc1ccccn1)Cc1ccccn1`, the TGI in the assay on NCI-H23 lung is 14.5 µM; with SK-MEL-28 melanoma, over 49.7 µM; in the assay on NCI-H460 lung it was over 44 µM; in the assay on M14 melanoma it was 43.7 µM; in the assay with SNB-19 CNS it was 21.9 µM; with CAKI-1 renal, 14.6 µM. Further, the TGI is over 100 µM in the assay with K-562 leukemia; over 100 µM in the assay with SF-539 CNS; over 100 µM in the assay on MCF7 breast; 5.2 µM in the assay with NCI/ADR-RES ovarian; 17.6 µM with TK-10 renal; over 74.4 µM in the assay on HS 578T breast. In addition, the TGI in the assay on DU-145 prostate turned out to be 19.7 µM.
With `CCOP(=O)(OCC)C1(O)CC(n2cc(C)c(=O)[nH]c2=O)OC1CO` (stereo not drawn), the TGI with NCI-H23 lung, with SK-MEL-28 melanoma, in the assay with NCI-H460 lung, with M14 melanoma, in the assay on SNB-19 CNS and in the assay on CAKI-1 renal was over 100 µM throughout. Besides, the TGI with K-562 leukemia, with SF-539 CNS, with MCF7 breast, in the assay with NCI/ADR-RES ovarian, in the assay with TK-10 renal and in the assay with HS 578T breast was over 100 µM in each case. In the assay with DU-145 prostate, this compound came in with a TGI of over 100 µM.
For `COC(=O)/C(=C\c1ccco1)P(=O)(OC)OC`, the TGI with NCI-H23 lung was over 100 µM; in the assay with SK-MEL-28 melanoma, over 100 µM; in the assay with NCI-H460 lung it was over 100 µM; with M14 melanoma, over 100 µM; in the assay on SNB-19 CNS, over 100 µM; with CAKI-1 renal it was 65 µM. Further, the TGI with K-562 leukemia was over 100 µM; in the assay with SF-539 CNS, 65.9 µM; in the assay on MCF7 breast, over 100 µM; in the assay on NCI/ADR-RES ovarian it was over 100 µM; in the assay on TK-10 renal it was over 100 µM; in the assay on HS 578T breast, over 100 µM. The compound further returned a TGI with DU-145 prostate of over 100 µM.
Take `CC(=O)C12C[C@](C#N)(N3CCCCCC3)C1C=Cc1ccccc12` (stereo partly drawn): the TGI with NCI-H23 lung, in the assay with SK-MEL-28 melanoma, with NCI-H460 lung, in the assay with M14 melanoma, in the assay with SNB-19 CNS and in the assay with CAKI-1 renal was over 100 µM throughout. Besides, the TGI in the assay on K-562 leukemia, with SF-539 CNS, with MCF7 breast, with NCI/ADR-RES ovarian, with TK-10 renal and in the assay with HS 578T breast was over 100 µM each time. Also, the TGI with DU-145 prostate is over 100 µM.
Take `COc1ccc2c(-c3ccc(OCCN(C)C)cc3)c(Oc3ccc(Cl)cc3)c(=O)oc2c1`: the TGI in the assay with NCI-H23 lung was over 54.2 µM; in the assay on SK-MEL-28 melanoma, 3.57 µM; in the assay on NCI-H460 lung it was over 42.4 µM; in the assay with M14 melanoma, 3.23 µM; in the assay on SNB-19 CNS, 33.6 µM; in the assay on CAKI-1 renal, 31 µM. For the same compound, the TGI with K-562 leukemia is 4.95 µM; in the assay on SF-539 CNS, over 30.8 µM; in the assay on MCF7 breast, 6.12 µM; with NCI/ADR-RES ovarian, over 62.5 µM; in the assay on TK-10 renal, 26.4 µM; in the assay on HS 578T breast it was over 54.6 µM. In the assay with DU-145 prostate, this compound registered a TGI of 32.7 µM.
As to `CCOC(=O)/C(C#N)=C(/NNc1ccccc1)c1ccncc1C(=O)O`, the TGI in the assay with NCI-H23 lung, with SK-MEL-28 melanoma, in the assay on NCI-H460 lung, in the assay on M14 melanoma, with SNB-19 CNS and in the assay on CAKI-1 renal was over 100 µM throughout. Besides, the TGI with K-562 leukemia was over 100 µM; in the assay on SF-539 CNS, over 88.3 µM; with MCF7 breast, over 100 µM; with NCI/ADR-RES ovarian, over 100 µM; in the assay on TK-10 renal, over 100 µM; with HS 578T breast it was over 100 µM. The compound further had a TGI in the assay on DU-145 prostate of over 100 µM.
For the compound `COc1ccc(/C(=N/Nc2nc3ccccc3[nH]2)C(=O)O)cc1`, the TGI in the assay on NCI-H23 lung, with SK-MEL-28 melanoma, in the assay on NCI-H460 lung, in the assay with M14 melanoma, in the assay with SNB-19 CNS and in the assay on CAKI-1 renal was over 100 µM each time. In addition, the TGI in the assay with K-562 leukemia, in the assay with SF-539 CNS, in the assay with MCF7 breast, with NCI/ADR-RES ovarian, with TK-10 renal and in the assay on HS 578T breast was over 100 µM throughout. In the assay on DU-145 prostate, this compound registered a TGI of over 100 µM.
`COc1nc(OC)nc(-c2cccc(F)c2)n1`: the TGI amounted to 29.7 µM in the assay on NCI-H23 lung; 39.6 µM in the assay with SK-MEL-28 melanoma; 32.9 µM in the assay with NCI-H460 lung; 36.4 µM with M14 melanoma; 32.4 µM with SNB-19 CNS; 11.4 µM in the assay with CAKI-1 renal. Besides, the TGI is 53.7 µM in the assay with K-562 leukemia; 32.5 µM in the assay with SF-539 CNS; 45.1 µM in the assay with MCF7 breast; 31.7 µM with NCI/ADR-RES ovarian; 33.1 µM in the assay on TK-10 renal; 93.5 µM with HS 578T breast. Further, in the assay with DU-145 prostate, the TGI was 26.8 µM.
Turning to `COC1=CC(=O)c2c(O)c3c(c(O)c2C1=O)C[C@](C)(O)C[C@@H]3O`, the TGI in the assay with NCI-H23 lung is 6.7 µM; with SK-MEL-28 melanoma, 18.4 µM; in the assay on NCI-H460 lung, 6.84 µM; in the assay on M14 melanoma, 8.59 µM; in the assay on SNB-19 CNS, 14.7 µM; in the assay on CAKI-1 renal, 45.5 µM. Also, the TGI stood at 19.4 µM with K-562 leukemia; 9.89 µM in the assay on SF-539 CNS; 16.3 µM with MCF7 breast; 29 µM with NCI/ADR-RES ovarian; 64.3 µM in the assay on TK-10 renal; 81.4 µM with HS 578T breast. The compound further displayed a TGI in the assay with DU-145 prostate of 16 µM.
Consider `CN(CCc1ccc(Cl)c(Cl)c1)CCN(C)CCN1CCCC1`, for which the TGI in the assay with NCI-H23 lung came out at 38.3 µM; in the assay with SK-MEL-28 melanoma, 3.34 µM; in the assay on NCI-H460 lung, 25.7 µM; in the assay with M14 melanoma, 9.88 µM; in the assay with SNB-19 CNS, 43.3 µM; in the assay with CAKI-1 renal it was 32.1 µM. Further, the TGI with K-562 leukemia is 7.27 µM; in the assay on SF-539 CNS it was 17.5 µM; in the assay with MCF7 breast, 26.3 µM; with NCI/ADR-RES ovarian it was over 72.7 µM; in the assay with TK-10 renal it was 26.7 µM; in the assay on HS 578T breast it was 46.3 µM. The TGI with DU-145 prostate was 86.4 µM.

The record behind these values is PubChem BioAssay (NCI).
